Source: patent US7348425B2, “Inhibitors of HCV replication” (Bristol-Myers Squibb Company, priority 2004, dated 2008)

Tested on: HCV replicon
Assay: HCV replicon FRET assay
Assay type: cell-based
Settings: Hepatitis C virus; FRET assay; read-out: EC50
Experimental: The IC50 values for compounds were determined using seven different [I]. IC50 values were calculated from the inhibition using the formula y=A+((B−A)/(1+((C/x)^D))). FRET Assay Preparation. To perform the HCV FRET screening assay, 96-well cell culture plates were used. The FRET peptide (Anaspec, Inc.) (Taliani et al., Anal. Biochem. 240:60-67 (1996), hereby incorporated by reference in its entirety) contains a fluorescence donor, EDANS, near one end of the peptide and an acceptor, DABCYL, near the other end. The fluorescence of the peptide is quenched by […] resonance energy transfer (RET) between the donor and the acceptor, but as the NS3 protease cleaves the peptide the products are released from RET quenching and the fluorescence of the donor becomes apparent. The assay reagent was made as follows: 5× cell Luciferase cell culture lysis reagent from Promega (#E153A) diluted to 1× with dH2O, NaCl added to 150 mM final, the FRET peptide diluted to 20 uM final from a 2 mM stock.
To prepare plates, HCV replicon cells, with or without a Renilla luciferase reporter gene, were trypsinized and placed into each well of a 96-well plate with titrated test compounds added in columns 3 through 12; columns 1 and 2 contained a control compound (HCV protease inhibitor), and the bottom row contained cells without compound. The plates were then placed in a CO2 incubator at 37 degrees C.
Assays. Subsequent to addition of the test compounds described above (FRET Assay Preparation), at various times the plate was removed and Alamar blue solution (Trek Diagnostics, #00-100) was added per well as a measure of cellular toxicity. After reading in a Cytoflour 4000 instrument (PE Biosystems), plates were rinsed with PBS and then used for FRET assay by the addition of 30 ul of the FRET peptide assay reagent described above (FRET Assay Preparation) per well. The plate was then placed into the Cytoflour 4000 instrument which had been set to 340 excite/490 emission, automatic mode for 20 cycles and the plate read in a kinetic mode. Typically, the signal to noise using an endpoint analysis after the reads was at least three-fold. Alternatively, after Alamar blue reading, plates were rinsed with PBS, 50 ul of DMEM (high glucose) without phenol red was added and plates were then used for luciferase assay using the Promega Dual-Glo Luciferase Assay System.
Compound analysis was determined by quantification of the relative HCV replicon inhibition and the relative cytotoxicity values. To calculate cytoxicity values, the average Alamar Blue fluorescence signals from the control wells were set as 100% non-toxic. The individual signals in each of the compound test wells were then divided by the average control signal and multiplied by 100% to determine […]. To calculate the HCV replicon inhibition values, an average background value was obtained from the two wells containing the highest amount of HCV protease inhibitor at the end of the assay period. These numbers were similar to those obtained from naïve Huh-7 cells.
The background numbers were then subtracted from the average signal obtained from the control wells and this number was used as 100% activity. The individual signals in each of the compound test wells were then divided by the averaged control values after background subtraction and multiplied by 100% to determine percent activity. EC50 values for a protease inhibitor titration were calculated as the concentration which caused a 50% reduction in FRET or luciferase activity. The two numbers generated for the compound plate, percent cytoxicity and percent activity were used to determine compounds of interest for further analysis.

`CCN(C)C(=O)C1=Cc2cc(OC)ccc2-c2c(C3CCCCC3)c3ccc(C(=O)NS(=O)(=O)N(C)C)cc3n2C1` and `COc1ccc2c(c1)C=C(C(=O)N1CCC(O)CC1)Cn1c-2c(C2CCCCC2)c2ccc(C(=O)NS(=O)(=O)N(C)C)cc21` fall in the same range of EC50: 50 to 1000 nM for the first, 50 to 1000 nM for the second.

Compared with `CN(C)C(=O)C1=Cc2ccccc2-c2c(C3CCCCC3)c3ccc(C(=O)O)cc3n2C1`, `O=C(C1=Cc2ccccc2-c2c(C3CCCCC3)c3ccc(C(=O)N4CCOCC4)cc3n2C1)N1CCOCC1` is higher in EC50: 10 to 1000 nM for the first, 1000 to 10000 nM for the second. The first is the more potent here.

`COC(=O)/C=C/c1ccc(NC(=O)C2(NC(=O)c3ccc4c(C5CCCCC5)c5n(c4c3)CCCc3ncccc3-5)CCCC2)cc1` and `O=C(O)/C=C/c1ccc(NC(=O)C2(NC(=O)c3ccc4c(C5CCCCC5)c5n(c4c3)C[C@@H](O)[C@@H](O)c3ncccc3-5)CCCC2)cc1` fall in the same range of EC50: 10 to 1000 nM for the first, 10 to 1000 nM for the second.

First: CNC(=O)C1Cc2ccccc2-c2c(C3CCCCC3)c3ccc(C(=O)NC4(C(=O)Nc5ccc(/C=C/C(=O)O)cc5)CCCC4)cc3n2C1 (stereo not shown)
Second: Nc1nc2c(s1)CCCn1c-2c(C2CCCCC2)c2ccc(C(=O)NC3(C(=O)Nc4ccc(/C=C/C(=O)O)cc4)CCCC3)cc21
The EC50 of the first is lower: 10 to 1000 nM for the first, 1000 to 10000 nM for the second.

`COC(=O)c1ccc2c(C3CCCCC3)c3n(c2c1)CC(N1CCOCC1)Cc1ccccc1-3` (stereo not shown) and `COC(=O)c1ccc2c(C3CCCCC3)c3n(c2c1)C=C(C#N)Cc1ccccc1-3` fall in the same range of EC50: 10 to 1000 nM for the first, 10 to 1000 nM for the second.

First: O=C(O)c1ccc2c(C3CCCCC3)c3n(c2c1)C(C(=O)N1CCOCC1)CNc1ccccc1-3 (stereo not shown)
Second: CS(=O)(=O)NC(=O)c1ccc2c(C3CCCCC3)c3n(c2c1)CCNc1ccccc1-3
The EC50 of the first is higher: 1000 to 10000 nM for the first, 10 to 1000 nM for the second. The second is the more potent here.

Going from `COC(=O)C1=Cc2c(OC)cccc2-c2c(C3CCCCC3)c3ccc(C(=O)OC)cc3n2C1` to `COc1cc(CNC(=O)c2ccc3c(C4CCCCC4)c4n(c3c2)CC(=O)Nc2ccccc2-4)ccc1O`, the EC50 falls from greater than 3300 nM to less than 100 nM.

`COc1cc(CNC(=O)c2ccc3c(C4CCCCC4)c4n(c3c2)CC(C(=O)N2CCOCC2)=Cc2ccccc2-4)ccc1O` and `CN(C)S(=O)(=O)NC(=O)c1ccc2c(C3CCCCC3)c3n(c2c1)CC(C(=O)N1CCOCC1)=Cc1ccncc1-3` fall in the same range of EC50: 10 to 1000 nM for the first, 10 to 1000 nM for the second.

`CNS(=O)(=O)NC(=O)c1ccc2c(C3CCCCC3)c3n(c2c1)CC(C(=O)N1C[C@@H](C)O[C@@H](C)C1)=Cc1cc(F)ccc1-3` gave an EC50 of 50 to 1000 nM.

Molecular target: T1, HCV NS5B RdRp genotype 1b (Hepatitis C virus genotype 1b, UniProt Q9WMX2)
T1 construct: The protein was expressed with an 18 amino acid C-terminal truncation to enhance the solubility; made in house; host or cells: E. coli BL21 (DE3), pET21a
T1 sequence (Q9WMX2 2420-2992): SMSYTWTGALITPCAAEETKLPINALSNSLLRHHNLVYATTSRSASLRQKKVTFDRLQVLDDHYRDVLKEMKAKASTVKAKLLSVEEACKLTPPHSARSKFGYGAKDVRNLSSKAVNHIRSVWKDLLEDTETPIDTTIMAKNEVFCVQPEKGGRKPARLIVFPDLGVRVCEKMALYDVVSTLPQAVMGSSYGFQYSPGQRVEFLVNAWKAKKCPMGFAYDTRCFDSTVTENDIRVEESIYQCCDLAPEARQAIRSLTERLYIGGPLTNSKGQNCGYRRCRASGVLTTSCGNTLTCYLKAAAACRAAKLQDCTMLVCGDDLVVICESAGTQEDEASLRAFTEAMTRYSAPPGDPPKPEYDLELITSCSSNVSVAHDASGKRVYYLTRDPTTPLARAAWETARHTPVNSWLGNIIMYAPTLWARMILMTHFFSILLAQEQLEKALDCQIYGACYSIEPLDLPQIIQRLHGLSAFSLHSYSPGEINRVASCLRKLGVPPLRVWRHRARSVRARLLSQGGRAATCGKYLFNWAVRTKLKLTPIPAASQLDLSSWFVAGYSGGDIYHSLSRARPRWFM
Assay: Modified HCV NS5B RdRp enzyme assay (with preincubation)
Assay type: biochemical
Settings: modified method (with preincubation)
Experimental: HCVNS5B RdRp cloning, expression, and purification. The cDNA encoding the NS5B protein of HCV, genotype 1b, was cloned into the pET21a expression vector. The protein was expressed with an 18 amino acid C-terminal truncation to enhance the solubility. The E. coli competent cell line BL21 (DE3) was used for expression of the protein. Cultures were grown at 37° C. for ˜4 hours until the cultures reached an optical density of 2.0 at 600 nm. The cultures were cooled to 20° C. and induced with 1 mM IPTG. Fresh ampicillin was added to a final concentration of 50 μg/ml and the cells were grown overnight at 20° C.
Cell pellets (3 L) were lysed for purification to yield 15-24 mgs of purified NS5B. The lysis buffer consisted of 20 mM Tris-HCl, pH 7.4, 500 mM NaCl, 0.5% triton X-100, 1 mM DTT, 1 mM EDTA, 20% glycerol, 0.5 mg/ml lysozyme, 10 mM MgCl2, 15 ug/ml deoxyribonuclease I, and Complete TM protease inhibitor tablets (Roche). After addition of the lysis buffer, frozen cell pellets were resuspended using a tissue homogenizer. To reduce the viscosity of the sample, aliquots of the lysate were sonicated on ice using a microtip attached to a Branson sonicator. The sonicated lysate was centrifuged at 100,000×g for 1 hr at 4° C. and filtered through a 0.2 μm filter unit (Corning).
The protein was purified using three sequential chromatography steps: Heparin sepharose CL-6B, polyU sepharose 4B, and Hitrap SP sepharose (Pharmacia). The chromatography buffers were identical to the lysis buffer but contained no lysozyme, deoxyribonuclease I, MgCl2 or protease inhibitor and the NaCl concentration of the buffer was adjusted according to the requirements for charging the protein onto the column. Each column was eluted with a NaCl gradient which varied in length from 5-50 column volumes depending on the column type. After the final chromatography step, the resulting purity of the enzyme is >90% based on SDS-PAGE analysis. The enzyme was aliquoted and stored at −80° C.
Standard HCV NS5B RdRp enzyme assay. HCV RdRp genotype Ib assays were run in a final volume of 60 μl in 96 well plates (Costar 3912). The assay buffer is composed of 20 mM Hepes, pH 7.5, 2.5 mM KCl, 2.5 mM MgCl2, 1 mM DTT, 1.6 U RNAse inhibitor (Promega N2515), 0.1 mg/ml BSA (Promega R3961), and 2% glycerol. All compounds were serially diluted (3-fold) in DMSO and diluted further in water such that the final concentration of DMSO in the assay was 2%. HCV RdRp genotype 1b enzyme was used at a final concentration of 28 nM. A polyA template was used at 6 nM, and a biotinylated oligo-dT12 primer was used at 180 nM final concentration. Template was obtained commercially (Amersham 27-4110). Biotinylated primer was prepared by Sigma Genosys. ^3H-UTP was used at 0.6 μCi (0.29 μM total UTP). Reactions were initiated by the addition of enzyme, incubated at 30° C. for 60 min, and stopped by adding 25 μl of 50 mM EDTA containing SPA beads (4 μg/μl, Amersham RPNQ 0007). Plates were read on a Packard Top Count NXT after >1 hr incubation at room temperature.
Modified HCV NS5B RdRp enzyme assay. A modified enzyme assay was performed essentially as described for the standard enzyme assay except for the following: The biotinylated oligo dT12 primer was precaptured on streptavidin-coated SPA beads by mixing primer and beads in assay buffer and incubating at room temperature for one hour. Unbound primer was removed after centrifugation. The primer-bound beads were resuspended in 20 mM Hepes buffer, pH 7.5 and used in the assay at final concentrations of 20 nM primer and 0.67 μg/μl beads. Order of addition in the assay: enzyme (14 nM) was added to diluted compound followed by the addition of a mixture of template (0.2 nM), ^3H-UTP (0.6 μCi, 0.29 μM), and primer-bound beads, to initiate the reaction; concentrations given are final. Reactions were allowed to proceed for 4 hours at 30° C.
The IC50 values for compounds were determined using seven different [I]. […]

First: CN(C)C(=O)C1=Cc2ccccc2-c2c(C3CCCCC3)c3ccc(C(=O)O)cc3n2C1
Second: O=C(C1=Cc2ccccc2-c2c(C3CCCCC3)c3ccc(C(=O)N4CCOCC4)cc3n2C1)N1CCOCC1
The IC50 of the first is lower: 20 to 1000 nM for the first, greater than 1000 nM for the second.

`COC(=O)/C=C/c1ccc(NC(=O)C2(NC(=O)c3ccc4c(C5CCCCC5)c5n(c4c3)CCCc3ncccc3-5)CCCC2)cc1` and `O=C(O)/C=C/c1ccc(NC(=O)C2(NC(=O)c3ccc4c(C5CCCCC5)c5n(c4c3)C[C@@H](O)[C@@H](O)c3ncccc3-5)CCCC2)cc1` fall in the same range of IC50: 20 to 1000 nM for the first, 20 to 1000 nM for the second.

`CNC(=O)C1Cc2ccccc2-c2c(C3CCCCC3)c3ccc(C(=O)NC4(C(=O)Nc5ccc(/C=C/C(=O)O)cc5)CCCC4)cc3n2C1` (stereo not shown) and `Nc1nc2c(s1)CCCn1c-2c(C2CCCCC2)c2ccc(C(=O)NC3(C(=O)Nc4ccc(/C=C/C(=O)O)cc4)CCCC3)cc21` fall in the same range of IC50: 20 to 1000 nM for the first, 20 to 1000 nM for the second.

`COC(=O)c1ccc2c(C3CCCCC3)c3n(c2c1)CC(N1CCOCC1)Cc1ccccc1-3` (stereo not shown) and `COC(=O)c1ccc2c(C3CCCCC3)c3n(c2c1)C=C(C#N)Cc1ccccc1-3` cannot be ordered by IC50: greater than 1000 nM for the first, greater than 1000 nM for the second.

`CS(=O)(=O)NC(=O)c1ccc2c(C3CCCCC3)c3n(c2c1)CCNc1ccccc1-3` and `COc1cc(CNC(=O)c2ccc3c(C4CCCCC4)c4n(c3c2)CC(=O)Nc2ccccc2-4)ccc1O` fall in the same range of IC50: 20 to 1000 nM for the first, 20 to 1000 nM for the second.

`COc1cc(CNC(=O)c2ccc3c(C4CCCCC4)c4n(c3c2)CC(C(=O)N2CCOCC2)=Cc2ccccc2-4)ccc1O` and `CN(C)S(=O)(=O)NC(=O)c1ccc2c(C3CCCCC3)c3n(c2c1)CC(C(=O)N1CCOCC1)=Cc1ccncc1-3` fall in the same range of IC50: 20 to 1000 nM for the first, 20 to 1000 nM for the second.

Same assay, conditions: preincubation protocol

`CCN(C)C(=O)C1=Cc2cc(OC)ccc2-c2c(C3CCCCC3)c3ccc(C(=O)NS(=O)(=O)N(C)C)cc3n2C1` and `COc1ccc2c(c1)C=C(C(=O)N1CCC(O)CC1)Cn1c-2c(C2CCCCC2)c2ccc(C(=O)NS(=O)(=O)N(C)C)cc21` fall in the same range of IC50: 10 to 1000 nM for the first, 10 to 1000 nM for the second.

`O=C(O)c1ccc2c(C3CCCCC3)c3n(c2c1)C(C(=O)N1CCOCC1)CNc1ccccc1-3` (stereo not shown) and `COC(=O)C1=Cc2c(OC)cccc2-c2c(C3CCCCC3)c3ccc(C(=O)OC)cc3n2C1` cannot be ordered by IC50: greater than 1000 nM for the first, greater than 4000 nM for the second.

`CNS(=O)(=O)NC(=O)c1ccc2c(C3CCCCC3)c3n(c2c1)CC(C(=O)N1C[C@@H](C)O[C@@H](C)C1)=Cc1cc(F)ccc1-3` was tested, and the IC50 was 10 to 1000 nM.
